The target of assay [1] is T1, CDK9/CycT1 (Homo sapiens (Human), UniProt P50750). As to the kind of experiment: CDK9 kinase assay, ATP concentration at Km (mobility shift, Caliper LC3000). Format: biochemical. As to conditions: 6 μM ATP, 3 nM CDK9/CycT1; read-out: CDK9 ATP conc. at Km (IC50). As to the method:
(§1) Activity of CDK9 was determined in-vitro using a mobility shift assay on a Caliper LC3000 reader (Caliper/PerkinElmer), which measures fluorescence of a phosphorylated and unphosphorylated fluorescent peptide substrate and calculates a ratiometric value to determine percent turnover. Phosphorylation of the peptide in the presence and absence of the compound of interest was determined. Enzyme/substrate/adenosine triphosphate (ATP) mix (3 nM CDK9/CycT1, 6 μM ATP, 1.5 μM CDK9 peptide substrate (FITC-X-GSRTPMY-NH2 (X: epsilon aminocaproic acid)), 50 mM HEPES (pH7.2), 1 mM dithiothreitol, 0.01% tween 20, 50 μg/mL bovine serum albumin, (final assay concentration)) (5 μl) was preincubated with 2 μl of compound for 15 minutes at 25° C. Reactions were initiated with 5 μl of 24 mM MgCl2 (10 mM final assay concentration) in buffer (50 mM HEPES (pH7.2), 1 mM dithiothreitol, 0.01% tween 20, 50 μg/mL bovine serum albumin, (final assay concentration) and incubated at 25° C. for 90 minutes and reactions were stopped by addition of 5 μl of Stop mix consisting of 65 mM HEPES (pH7.2), 35.5 mM EDTA, 0.227% Coatin Reagent 3 (Caliper/PerkinElmer), and 0.003% Tween. Phosphorylated and unphosphorylated substrate was detected by a Caliper LC3000 reader (Caliper/PerkinElmer) in the presence of separation buffer consisting of 100 mM HEPES (pH7.2), 15.8 mM EDTA, 0.1% Coatin Reagent 3 (Caliper/PerkinElmer), 0.015% Brij-35, 5% DMSO, and 5.6 mM MgCl2. CDK9 enzyme was acquired from Carna Biosciences (Catalogue number 04-110), the CDK9 peptide substrate was acquired from Intonation (Boston, Mass.; Custom-made).

Assay [2] deals with T1, CDK9/CycT1. The assay can be described thus: CDK9 kinase assay, high ATP concentration (5 mM ATP). Format: biochemical. As to conditions: 1.5 nM CDK9, read-out: CDK9 High ATP conc. (IC50). As for the experimental part:
as §1
High ATP assays were run the same way with the following modifications: the final assay concentration of CDK9 was 1.5 nM and the final assay concentration of ATP was 5 mM.

Assay [3] relates to phosphorylation of RNA Polymerase II (RNAPII) at the Ser2 site in MCF7 cells. As to the kind of experiment: MCF7 pSer2 RNAPII MOA assay (immunofluorescence). Format: cell-based. The note with it: Homo sapiens, MCF7, 6 h, 6-hr treatment, read-out: p-Ser 2 RNAPII (IC50). As to the method:
MCF7 pSer2 RNAPII MOA Assay
This is an immunofluorescence assay to determine the effect of CDK9 inhibitors on phosphorylation of RNA Polymerase II (RNAPII) at the Ser2 site in the breast cancer cell line, MCF7. On day one, 2500 MCF7 cells/well were seeded in 30 μl of growth media (RPMI+10% FBS+1% L-Glu+P/S) in 384-well black-wall clear-bottom plates, incubate plates overnight at 37° C. incubator. On the second day, the cells were treated with CDK9 inhibitors (7 point dose response ranging from 3 μM to 0.004 μM) using an ECHO liquid handler (Labcyte). After 6-hr treatment at 37° C. incubator, the cells were fixed with 30 µl/well 7.4% paraformaldehyde for 15 min at room temperature; the cells were washed twice with PBS, then permeabilized with 0.3% Triton X/PBS for 5 min at room temperature. After washing cells with PBS, the cells were incubated with 1:2000 diluted Anti-Ser2 Phospho-RNA pol II antibody (Covance MMS-129R) in 3% FBS/0.1% PBST overnight at 4° C. On the next day, the cells were washed twice with 0.1% PBST, then incubated with 1:1000 diluted Alexa Fluor 488 Goat-anti-mouse antibody (Life Technologies A-11001) and 1:4000 diluted DAPI at room temperature in dark. After one hour incubation, the cells were washed twice with 0.1% PBST, and once with PBS. The plates where sealed and read on an Acumen eX3 microplate cytometer (TTP Labtech) to assess phosphorylation level in each well.

A further assay concerns MV411 cells. As to the kind of experiment: MV411 caspase activity assay (Caspase-Glo 3/7). Format: cell-based. As to conditions: Homo sapiens, MV4-11, 6 h, 6-hr treatment, caspase 3/7 induction. As for the experimental part: MV411 Caspase Activity Assay
This is a cell assay to measure the induction of caspase activity in the acute myeloid leukemia cell line, MV411 after 6-hr treatment with CDK9 inhibitors. On the first day, 3000 MV411 cells/well were seeded in 50 μl of growth media (IMDM+10% FBS+2% L-Glu+P/S) in 384-well white plates, incubate plates in 37° C. incubator overnight. […] After 6 hour incubation in 37° C. incubator, 25 μl of Caspase-Glo 3/7 reagent (Promega) per well was added into each well, and plates were incubated at room temperature for 30 min in dark. The plates were read on an Infinite M200 microplate reader (Tecan) with a 100 ms integration time.

A word on the IC50: it is the concentration at which inhibition is half-maximal.

T1 sequence (P50750 whole entry): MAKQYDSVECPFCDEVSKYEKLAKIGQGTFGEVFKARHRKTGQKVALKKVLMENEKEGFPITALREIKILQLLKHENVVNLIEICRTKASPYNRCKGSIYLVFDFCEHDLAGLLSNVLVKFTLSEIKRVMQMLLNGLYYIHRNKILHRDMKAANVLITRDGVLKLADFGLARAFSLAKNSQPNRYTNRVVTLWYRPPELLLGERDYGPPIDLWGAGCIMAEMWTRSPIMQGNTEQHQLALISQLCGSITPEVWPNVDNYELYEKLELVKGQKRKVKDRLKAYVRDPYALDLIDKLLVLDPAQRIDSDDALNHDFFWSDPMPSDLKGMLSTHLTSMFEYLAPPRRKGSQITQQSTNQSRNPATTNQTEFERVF
T1 sequence (O60563 whole entry partner): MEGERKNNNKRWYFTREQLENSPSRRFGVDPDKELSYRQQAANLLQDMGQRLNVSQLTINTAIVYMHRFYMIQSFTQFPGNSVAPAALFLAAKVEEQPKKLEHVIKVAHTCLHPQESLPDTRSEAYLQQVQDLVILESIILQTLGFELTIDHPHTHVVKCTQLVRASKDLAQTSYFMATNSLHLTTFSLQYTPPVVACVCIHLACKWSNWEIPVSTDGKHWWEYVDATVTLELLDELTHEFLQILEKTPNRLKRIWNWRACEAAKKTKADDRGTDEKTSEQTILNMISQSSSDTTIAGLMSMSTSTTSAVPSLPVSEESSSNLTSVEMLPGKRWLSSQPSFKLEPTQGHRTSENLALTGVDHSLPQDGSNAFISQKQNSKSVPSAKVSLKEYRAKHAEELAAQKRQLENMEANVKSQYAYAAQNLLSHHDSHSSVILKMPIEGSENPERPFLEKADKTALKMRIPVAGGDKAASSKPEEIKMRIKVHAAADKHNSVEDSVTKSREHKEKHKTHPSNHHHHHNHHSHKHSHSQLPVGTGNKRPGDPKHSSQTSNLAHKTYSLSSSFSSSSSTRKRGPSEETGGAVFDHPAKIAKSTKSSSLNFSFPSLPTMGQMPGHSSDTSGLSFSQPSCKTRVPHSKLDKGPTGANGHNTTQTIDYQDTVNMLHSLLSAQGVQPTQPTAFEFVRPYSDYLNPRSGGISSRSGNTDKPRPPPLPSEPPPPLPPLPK

With `CC(=O)N[C@H]1CCC[C@H](C(=O)Nc2cc(-c3cnn4c3CC(C)(C)C4)c(F)cn2)C1` (relative stereo) [Example 84, (1S,3S)-3-acetamido-N-(4-(5,5-dimethyl-5,6-dihydro-4H-pyrrolo[1,2-b]pyrazol-3-yl)-5-fluoropyridin-2-yl)cyclohexane-1-carboxamide], the IC50 on CDK9/CycT1 [1] was 28 nM; on CDK9/CycT1 [2], 2130 nM; in assay [3] it was more than 1950 nM; in the assay on MV411 cells it was 2520 nM.
As to `CC(=O)N[C@@H]1CCC[C@H](C(=O)Nc2cc(-c3cnn4c3CC(C)C4)c(Cl)cn2)C1` (single isomer, unassigned) [Example 42], the IC50 at CDK9/CycT1 [1] is less than 3 nM; on CDK9/CycT1 [2], 26 nM; in assay [3], 36 nM; in the assay on MV411 cells, 92 nM.
`CC(=O)N[C@@H]1CCC[C@H](C(=O)Nc2cc(-c3cnn4c3CC(C)CC4)c(Cl)cn2)C1` (single isomer, unassigned) [Example 64]: the IC50 is less than 3 nM on CDK9/CycT1 [1], 7 nM on CDK9/CycT1 [2], 45 nM in assay [3] and 43 nM with MV411 cells.
The corresponding values for `COC1CCn2ncc(-c3cc(NC(=O)[C@H]4CCC[C@@H](NC(C)=O)C4)ncc3Cl)c2C1` (single isomer, unassigned) [Example 72] are 3 nM, 111 nM, 360 nM and 400 nM.
In the same order, the values of `CC(=O)N[C@@H]1CCC[C@@H](C(=O)Nc2cc(-c3cnn4c3CC(C)(C)C4)c(F)cn2)C1` (single isomer, unassigned) [Example 83] are less than 3 nM, 25 nM, 61 nM and 73 nM.
The corresponding values for `O=C(Nc1cc(-c2cnc3n2CCCC3)c(Cl)cn1)[C@@H]1CCCNC1` [Example 1, (R)—N-(5-chloro-4-(5,6,7,8-tetrahydroimidazo[1,2-a]pyridin-3-yl)pyridin-2-yl)piperidine-3-carboxamide] are 49.1 nM, 4500 nM, 1540 nM and 1780 nM.
Consider `CC(=O)N[C@@H]1CCC[C@H](C(=O)Nc2cc(-c3cnn4c3CCCC4)ccn2)C1` [Example 3, (1S,3R)-3-acetamido-N-(4-(4,5,6,7-tetrahydropyrazolo[1,5-a]pyridin-3-yl)pyridin-2-yl)cyclohexanecarboxamide], for which the IC50 on CDK9/CycT1 [1] was less than 3 nM; at CDK9/CycT1 [2] it was 210 nM; in assay [3], 520 nM; in the assay with MV411 cells, 440 nM.
As to `O=C(Nc1cc(-c2cnn3c2CCCC3)c(Cl)cn1)[C@H]1C[C@@H](O)C1` [Example 4, Cis-N-(5-chloro-4-(4,5,6,7-tetrahydropyrazolo[1,5-a]pyridin-3-yl)pyridin-2-yl)-3-hydroxycyclobutanecarboxamide], the concentration for half-maximal inhibition (IC50) at CDK9/CycT1 [1] was found to be 3 nM; on CDK9/CycT1 [2] it was 170 nM; in assay [3], 220 nM; in the assay on MV411 cells it was 280 nM.
In the case of `O=C(Nc1cc(-c2cnn3c2CCCC3)c(Cl)cn1)[C@@H]1CCCNC1` [Example 5, (R)—N-(5-chloro-4-(4,5,6,7-tetrahydropyrazolo[1,5-a]pyridin-3-yl)pyridin-2-yl)piperidine-3-carboxamide], the IC50 on CDK9/CycT1 [1] was less than 4 nM; on CDK9/CycT1 [2], 270 nM; in assay [3], 260 nM; with MV411 cells it was 160 nM.
In the same order, the values of `O=C(Nc1cc(-c2cnn3c2CCCC3)ccn1)[C@H]1C[C@@H](O)C1` [Example 6, cis-3-hydroxy-N-(4-(4,5,6,7-tetrahydropyrazolo[1,5-a]pyridin-3-yl)pyridin-2-yl)cyclobutanecarboxamide] are 8 nM, 750 nM, 460 nM and 630 nM.
Take `CC(=O)N[C@@H]1CCC[C@H](C(=O)Nc2cc(-c3cnc4n3CCCC4)c(Cl)cn2)C1` [Example 7, (1S,3R)-3-acetamido-N-(5-chloro-4-(5,6,7,8-tetrahydroimidazo[1,2-a]pyridin-3-yl)pyridin-2-yl)cyclohexanecarboxamide]: the IC50 was determined as 8 nM at CDK9/CycT1 [1], 690 nM at CDK9/CycT1 [2], 1450 nM in assay [3] and 1180 nM in the assay on MV411 cells.
As to `CC(=O)N[C@@H]1CCC[C@H](C(=O)Nc2cc(-c3cnn4c3OCCC4)c(Cl)cn2)C1` [Example 8, (1S,3R)-3-acetamido-N-(5-chloro-4-(6,7-dihydro-5H-pyrazolo[5,1-b][1,3]oxazin-3-yl)pyridin-2-yl)cyclohexanecarboxamide], the IC50 on CDK9/CycT1 [1] was less than 3 nM; on CDK9/CycT1 [2], 120 nM; in assay [3], 690 nM; with MV411 cells, 256 nM.
In the same order, the values of `CC(=O)N[C@@H]1CCC[C@H](C(=O)Nc2cc(-c3cnn4c3CCC4)c(Cl)cn2)C1` [Example 10, (1S,3R)-3-acetamido-N-(5-chloro-4-(5,6-dihydro-4H-pyrrolo[1,2-b]pyrazol-3-yl)pyridin-2-yl)cyclohexanecarboxamide] are 5 nM, 217 nM, 550 nM and 333 nM.
Consider `CC(=O)N[C@@H]1CCC[C@H](C(=O)Nc2cc(-c3cnn4c3COCC4)c(Cl)cn2)C1` [Example 11, (1S,3R)-3-acetamido-N-(5-chloro-4-(6,7-dihydro-4H-pyrazolo[5,1-c][1,4]oxazin-3-yl)pyridin-2-yl)cyclohexanecarboxamide], for which the IC50 at CDK9/CycT1 [1] turned out to be 11 nM; at CDK9/CycT1 [2], 1200 nM; in assay [3], 2700 nM; in the assay on MV411 cells, 1930 nM.
The corresponding values for `CC(=O)N[C@@H]1CCC[C@H](C(=O)Nc2cc(-c3cnc4n3CCC4)c(Cl)cn2)C1` [Example 12, (1S,3R)-3-acetamido-N-(5-chloro-4-(6,7-dihydro-5H-pyrrolo[1,2-a]imidazol-3-yl)pyridin-2-yl)cyclohexanecarboxamide] are 5 nM, 350 nM, 830 nM and 701 nM.
The corresponding values for `CC(=O)N[C@@H]1CCC[C@H](C(=O)Nc2cc(-c3cnn4c3CN(C)CC4)c(Cl)cn2)C1` [Example 13, (1S,3R)-3-acetamido-N-(5-chloro-4-(5-methyl-4,5,6,7-tetrahydropyrazolo[1,5-a]pyrazin-3-yl)pyridin-2-yl)cyclohexanecarboxamide] are 6 nM, 240 nM, 820 nM and 914 nM.
With `CC(=O)N[C@@H]1CCC[C@H](C(=O)Nc2cc(-c3cnn4c3NCCC4)c(Cl)cn2)C1` [Example 15, (1S,3R)-3-acetamido-N-(5-chloro-4-(4,5,6,7-tetrahydropyrazolo[1,5-a]pyrimidin-3-yl)pyridin-2-yl)cyclohexanecarboxamide], the IC50 on CDK9/CycT1 [1] was determined as 5 nM; at CDK9/CycT1 [2] it was 350 nM; in assay [3] it was 1300 nM; in the assay with MV411 cells, 669 nM.
